In US8067589B2, “Heterocyclic compounds useful in treating diseases and conditions” (Pfizer Inc, priority 2007, dated 2011):

Biological target: human recombinant H-PGDS (Homo sapiens, UniProt O60760)
Test: Fluoresecence Intensity h-PGDSTBA Enzyme Assay
Details: IC50, 5.0 μM PGH2, 2.5 mM L-Glutathione, 10 min preincubation, 4-parameter fit, highest inhibitor concentration typically 1 μM

Sequence of human recombinant H-PGDS (O60760 whole entry): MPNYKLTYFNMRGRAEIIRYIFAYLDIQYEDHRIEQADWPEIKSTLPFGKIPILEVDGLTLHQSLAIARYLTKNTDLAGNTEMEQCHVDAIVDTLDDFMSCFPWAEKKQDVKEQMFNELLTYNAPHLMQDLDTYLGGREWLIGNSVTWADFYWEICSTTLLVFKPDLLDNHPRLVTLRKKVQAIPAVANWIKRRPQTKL

| SMILES | IC50 [nM] |
| --- | --- |
| Cc1cc(C)c(C#N)c(N2CC(NC(=O)c3cnc(-c4cccc(F)c4)nc3)C2)n1 [Example 103, N-[1-(3-Cyano-4,6-dimethylpyridin-2-yl)azetidin-3-yl]-2-(3-fluorophenyl)pyrimidine-5-carboxamide] | 0.815 |
| O=C(NC1CN(c2nnnn2-c2ccccc2)C1)c1cnc(-c2cccc(F)c2)nc1 [Example 104, 2-(3-Fluorophenyl)-N-[1-(1-phenyl-1H-tetrazol-5-yl)azetidin-3-yl]pyrimidine-5-carboxamide] | 0.706 |
| O=C(NC1CN(c2cnc3ccccc3n2)C1)c1cnc(-c2cccc(F)c2)nc1 [Example 105, 2-(3-Fluorophenyl)-N-(1-quinoxalin-2-ylazetidin-3-yl)pyrimidine-5-carboxamide] | 0.364 |
| CC(C)(C)C(=O)N1CC(NC(=O)c2cnc(-c3cccc(F)c3)nc2)C1 [Example 106, N-[1-(2,2-Dimethylpropanoyl)azetidin-3-yl]-2-(3-fluorophenyl)pyrimidine-5-carboxamide] | 2.98 |
| O=C(NC1CCN(CC(F)(F)F)CC1)c1cnc(-c2ccccc2CO)nc1 [Example 113, 2-[2-(Hydroxymethyl)phenyl]-N-[1-(2,2,2-trifluoroethyl)piperidin-4-yl]pyrimidine-5-carboxamide] | 1010 |

Results, then the molecule that gave them:

| IC50 [nM] | SMILES |
| --- | --- |
| 9460 | CC(=O)c1ccccc1-c1ncc(C(=O)NC2CCN(CC(F)(F)F)CC2)cn1 [Example 119, 2-(2-Acetylphenyl)-N-[1-(2,2,2-trifluoroethyl)piperidin-4-yl]pyrimidine-5-carboxamide] |
| 270 | COC(=O)c1cccc(-c2ncc(C(=O)NC3CCN(CC(F)(F)F)CC3)cn2)c1 [Example 125, Methyl 3-[5-({[1-(2,2,2-trifluoroethyl)piperidin-4-yl]amino}carbonyl)pyrimidin-2-yl]benzoate] |
| 64 | CC(=O)c1cccc(-c2ncc(C(=O)NC3CCN(C(=O)C(C)(C)C)CC3)cn2)c1 [Example 142, 2-(3-Acetylphenyl)-N-[1-(2,2-dimethylpropanoyl)piperidin-4-yl]pyrimidine-5-carboxamide] |
| 2040 | O=C(NC1CCN(Cc2ccccn2)CC1)c1cnc(-c2cccc(CO)c2)nc1 [Example 159, 2-[3-(Hydroxymethyl)phenyl]-N-[1-(pyridin-2-ylmethyl)piperidin-4-yl]pyrimidine-5-carboxamide] |
| 2700 | CS(=O)(=O)Nc1cccc(-c2ncc(C(=O)NC3CCN(Cc4ccccn4)CC3)cn2)c1 [Example 176, 2-{3-[(Methylsulfonyl)amino]phenyl}-N-[1-(pyridin-2-ylmethyl)piperidin-4-yl]pyrimidine-5-carboxamide] |
